The values below come from ChEMBL document CHEMBL2010723, “Assessment of partially deoxygenated deoxynojirimycin derivatives as glucosylceramide synthase inhibitors” (ACS Med Chem Lett, 2011).

The nature of test [1]: Inhibition of recombinant glucosylceramidase 1 using 4-methylumbelliferyl-B-glucoside as substrate by fluorimetric analysis.
Test [2] concerns the target T1, Ceramide glucosyltransferase (Mus musculus, UniProt O88693).
T1 sequence (O88693 whole entry): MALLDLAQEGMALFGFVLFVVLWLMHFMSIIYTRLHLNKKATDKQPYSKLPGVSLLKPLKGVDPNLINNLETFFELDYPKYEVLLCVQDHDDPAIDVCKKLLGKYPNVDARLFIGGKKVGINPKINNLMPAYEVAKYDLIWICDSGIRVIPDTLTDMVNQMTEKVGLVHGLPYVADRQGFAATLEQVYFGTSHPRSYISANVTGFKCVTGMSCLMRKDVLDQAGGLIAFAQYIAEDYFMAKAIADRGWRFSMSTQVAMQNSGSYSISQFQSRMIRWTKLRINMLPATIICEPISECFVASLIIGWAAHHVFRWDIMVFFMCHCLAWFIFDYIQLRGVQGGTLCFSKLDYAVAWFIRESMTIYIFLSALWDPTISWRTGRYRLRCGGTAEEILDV
Put plainly: Inhibition of glucosylceramide synthase in mouse RAW cells preincubated for 15 mins followed by substrate addition and measured after 1 hr by fluorescence scanner. It is filed as cell-based.

The target in another test is T2, Beta-glucosidase (Homo sapiens, UniProt Q9HCG7).
T2 sequence (Q9HCG7 whole entry): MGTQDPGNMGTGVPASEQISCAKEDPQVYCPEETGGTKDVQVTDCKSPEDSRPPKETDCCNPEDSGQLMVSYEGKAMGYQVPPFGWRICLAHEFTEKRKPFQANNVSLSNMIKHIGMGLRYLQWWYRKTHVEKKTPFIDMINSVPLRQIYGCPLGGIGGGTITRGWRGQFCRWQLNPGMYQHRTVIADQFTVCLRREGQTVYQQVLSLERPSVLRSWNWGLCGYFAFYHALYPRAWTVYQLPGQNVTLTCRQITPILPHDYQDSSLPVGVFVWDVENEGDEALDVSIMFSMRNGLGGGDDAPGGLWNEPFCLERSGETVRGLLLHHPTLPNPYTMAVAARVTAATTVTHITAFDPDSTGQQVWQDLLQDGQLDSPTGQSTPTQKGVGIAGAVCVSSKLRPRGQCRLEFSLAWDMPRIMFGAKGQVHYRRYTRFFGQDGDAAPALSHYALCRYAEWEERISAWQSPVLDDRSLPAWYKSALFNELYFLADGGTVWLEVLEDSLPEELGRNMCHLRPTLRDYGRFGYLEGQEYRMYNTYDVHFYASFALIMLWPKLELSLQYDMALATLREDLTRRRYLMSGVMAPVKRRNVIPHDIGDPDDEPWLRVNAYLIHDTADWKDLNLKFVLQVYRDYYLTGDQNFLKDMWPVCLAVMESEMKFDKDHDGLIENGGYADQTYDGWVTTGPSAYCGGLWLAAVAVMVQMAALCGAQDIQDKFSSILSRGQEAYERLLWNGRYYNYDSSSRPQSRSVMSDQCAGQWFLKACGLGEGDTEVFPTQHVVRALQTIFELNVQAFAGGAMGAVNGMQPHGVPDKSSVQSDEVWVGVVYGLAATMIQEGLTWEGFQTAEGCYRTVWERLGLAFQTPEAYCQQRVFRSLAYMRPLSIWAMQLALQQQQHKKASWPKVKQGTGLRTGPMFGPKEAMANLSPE
Put plainly: Inhibition of glucosylceramidase 2 from spleen of patient with gaucher's disease by fluorimetric analysis.

`C[C@@H]1[C@@H](O)[C@H](O)[C@@H](O)CN1CCCCCOCC12CC3CC(CC(C3)C1)C2`: the 50% inhibitory concentration (IC50) in test [1] was 0.33 µM; in test [2], 0.8 µM; on Beta-glucosidase, 0.03 µM.

For the compound `O[C@H]1[C@H](O)CN(CCCCCOCC23CC4CC(CC(C4)C2)C3)C[C@@H]1O`, the IC50 in test [1] was 2.2 µM; in test [2], more than 10 µM; against Beta-glucosidase it was 0.8 µM.

In the case of `OC[C@H]1NCC[C@@H](O)[C@@H]1O` [FAGOMINE], the IC50 was more than 1000 µM in test [1], more than 10 µM in test [2] and more than 1000 µM against Beta-glucosidase.

As usually defined, the IC50 is the point on the concentration scale where inhibition reaches its midpoint.
